{"source": "paper PMC6521145", "about": "(Viruses, 2019)", "key": {"Vero cells [1]": {"tested_on": "Vero cells", "conditions": "for rescue of cell viability during MTX treatment (CTG): 5 µM MTX with GAT medium or 0.67 mM glycine, 37.5 µM adenosine, 41.3 µM thymidine"}, "Vero cells [2]": {"tested_on": "Vero cells", "conditions": "for rescue of cell viability during MTX treatment (CTF): 5 µM MTX with 0.67 mM glycine, 37.5 µM adenosine or 41.3 µM thymidine, uninfected Vero cells"}, "ZIKV (H/PAN and PRV)": {"tested_on": "ZIKV (H/PAN and PRV)", "assay": "Plaque assay, ZIKV titer from infected Vero cells", "assay_type": "cell-based, Zika virus", "conditions": "for rescue of ZIKV replication during MTX treatment: 5 µM MTX with GAT medium or 0.67 mM glycine, 37.5 µM adenosine, 41.3 µM thymidine, 48 h; for rescue of ZIKV replication from MTX treatment: 50 µM co-treatment with 5 µM MTX, H/PAN and PRV MOI 0.2, Vero cells; for rescue of ZIKV replication from MTX treatment / decrease in ZIKV titer: 48 h PI"}, "hNSCs": {"tested_on": "hNSCs", "conditions": "hNSCs"}, "ZIKV (H/PAN) [3]": {"tested_on": "ZIKV (H/PAN)", "assay": "Plaque assay, ZIKV titer from infected hNSCs", "assay_type": "cell-based, Zika virus"}, "ZIKV (H/PAN) [4]": {"tested_on": "ZIKV (H/PAN)", "assay": "Immunofluorescence imaging of ZIKV envelope protein in infected Vero cells"}, "ZIKV": {"tested_on": "ZIKV", "conditions": "human brain microvascular endothelial cells; read-out: inhibitory concentration 50 (IC50) against ZIKV; cited from earlier work"}, "ZIKV (H/PAN) [5]": {"tested_on": "ZIKV (H/PAN)", "assay": "Immunofluorescence imaging of ZIKV envelope protein in infected hNSCs", "conditions": "Zika virus, read-out: IC50 (µM) Values of MTX, Immunofluorescence"}, "[6]": {"tested_on": "human brain microvascular endothelial cells", "conditions": "read-out: host cytotoxicity (CC50); cited from earlier work"}, "[7]": {"conditions": "human"}, "[8]": {"conditions": "human, hNSCs"}, "[9]": {"conditions": "GAT medium or 37.5 µM adenosine without MTX"}}, "note": "Like-named read-outs stand apart in the source and are kept apart here."}
{"smiles": "NCC(=O)O", "note": "[glycine]", "values": [{"measurement": "rescue of cell viability during MTX treatment (CTG)", "setting": "Vero cells [1]; uninfected Vero cells", "result": "could not rescue"}, {"measurement": "rescue of cell viability during MTX treatment (CTF)", "setting": "Vero cells [2]", "result": "could not rescue"}]}
{"smiles": "Cc1cn([C@H]2C[C@H](O)[C@@H](CO)O2)c(=O)[nH]c1=O", "note": "[thymidine]", "values": [{"measurement": "rescue of cell viability during MTX treatment (CTG)", "setting": "Vero cells [1]; uninfected Vero cells", "result": "could not rescue"}, {"measurement": "rescue of cell viability during MTX treatment (CTF)", "setting": "Vero cells [2]", "result": "could not rescue"}, {"measurement": "rescue of ZIKV replication during MTX treatment", "setting": "ZIKV (H/PAN and PRV); H/PAN MOI 0.2, Vero cells", "result": "could not rescue"}]}
{"smiles": "Nc1ncnc2c1ncn2[C@@H]1O[C@H](CO)[C@@H](O)[C@H]1O", "note": "[adenosine]", "values": [{"measurement": "rescue of cell viability during MTX treatment (CTG)", "setting": "Vero cells [1]; uninfected Vero cells", "result": "could"}, {"measurement": "viability of Vero cells, substance alone (CTG)", "setting": "Vero cells [1]; [9]", "result": "did not alter"}, {"measurement": "rescue of cell viability during MTX treatment (CTF)", "setting": "Vero cells [2]", "result": "could"}, {"measurement": "viability of Vero cells, substance alone (CTF)", "setting": "Vero cells [2]; [9]", "result": "did not alter"}, {"measurement": "rescue of ZIKV replication during MTX treatment", "setting": "ZIKV (H/PAN and PRV); H/PAN MOI 0.2, Vero cells", "result": "rescued"}]}
{"smiles": "Nc1nc(=O)c2nc(CNc3ccc(C(=O)N[C@@H](CCC(=O)O)C(=O)O)cc3)cnc2[nH]1", "note": "[folic acid]", "values": [{"measurement": "rescue of ZIKV replication from MTX treatment", "setting": "ZIKV (H/PAN and PRV)", "result": "could not rescue"}]}
{"smiles": "Nc1nc2c(c(=O)[nH]1)N(C=O)C(CNc1ccc(C(=O)N[C@@H](CCC(=O)O)C(=O)O)cc1)CN2", "note": "(stereo partly shown) [leucovorin]", "values": [{"measurement": "cell viability, substance alone (CTG)", "setting": "Vero cells [1]; 50 µM leucovorin vs water vehicle, Vero cells", "result": "No significant difference"}, {"measurement": "rescue of cell viability after MTX treatment (CTG)", "setting": "Vero cells [1]; 50 µM with 5 µM MTX, uninfected Vero cells", "result": "could rescue"}, {"measurement": "rescue of ZIKV replication from MTX treatment", "setting": "ZIKV (H/PAN and PRV)", "result": "rescued"}, {"measurement": "cell viability, substance alone (CTG)", "setting": "hNSCs; 50 µM leucovorin vs water vehicle", "result": "No significant difference"}, {"measurement": "rescue of cell viability during MTX treatment (CTG)", "setting": "hNSCs; 50 µM with 5 µM MTX", "result": "same rescue effect"}, {"measurement": "rescue of ZIKV replication during MTX treatment", "setting": "ZIKV (H/PAN) [3]; 50 µM with 5 µM MTX, H/PAN MOI 0.1, hNSCs", "result": "same rescue effect"}]}
{"smiles": "CN(Cc1cnc2nc(N)nc(N)c2n1)c1ccc(C(=O)N[C@@H](CCC(=O)O)C(=O)O)cc1", "note": "[MTX, methotrexate]", "values": [{"measurement": "ZIKV envelope protein synthesis", "setting": "ZIKV (H/PAN) [4]; 5 µM MTX, H/PAN MOI 0.2, Vero cells, 48 h PI", "result": "reduced"}, {"measurement": "IC50", "setting": "ZIKV (H/PAN) [4]; Zika virus, Vero, read-out: IC50 (µM) Values of MTX, Immunofluorescence", "result": 0.245, "unit": "µM"}, {"measurement": "IC50", "setting": "ZIKV", "result": 280, "unit": "nM"}, {"measurement": "IC50", "setting": "ZIKV (H/PAN) [5]", "result": 0.334, "unit": "µM"}, {"measurement": "CC50", "setting": "[6]", "result": "> 10000", "unit": "nM"}, {"measurement": "decrease in ZIKV titer", "setting": "ZIKV (H/PAN and PRV); 5 µM MTX, H/PAN and PRV both MOI 0.2, Vero cells", "result": "approximately 10 fold"}, {"measurement": "ZIKV replication at 96 h PI compared to DMSO control", "setting": "ZIKV (H/PAN and PRV); 5 µM MTX, Vero cells, 96 h PI", "result": "resumed"}, {"measurement": "decrease in ZIKV titer", "setting": "ZIKV (H/PAN and PRV); 6.25 µM MTX, H/PAN MOI 0.2, Vero cells", "result": "approximately 10 fold"}, {"measurement": "CC50", "setting": "[7]", "result": 16.3, "unit": "nM"}, {"measurement": "CC50", "setting": "[8]", "result": "> 100000", "unit": "nM"}, {"measurement": "ZIKV replication in infected hNSCs", "setting": "ZIKV (H/PAN) [3]; 5 μM MTX, hNSCs", "result": "reduced ZIKV replication"}]}
